{"source": "patent US20070026090A1", "about": "“Treatment and prevention of inflammatory disease and mitochondrial dysfunction with high dose selenium” (priority 2003, published 2007)", "key": {"[1]": {"details": "in vivo; cited from earlier work"}, "18S RNA and GAPDH": {"test_system": "18S RNA and GAPDH", "assay": "Housekeeping transcripts 18S and GAPDH in colon tissue (RT-PCR)", "assay_type": "in vivo, rat", "details": "supplemented rats (FIG. 7A)"}, "NF-κB [2]": {"test_system": "NF-κB", "assay": "NF-κB binding in vitro, selenite added to nuclear extract (EMSA)", "parameters": "species or system murine", "details": "5 μM added to nuclear extract 5 minutes before (FIG. 12B)", "description": "Electromobility shift assay (EMSA)—Gel shift assays were performed according to the gel shift assay protocol from Promega Corp. (San Luis Obispo, Calif.). […] For each reaction, 2 μg of nuclear extract were incubated with 2 μl of 5× binding buffer for 5 min., 1 μl of the ^32P-labeled oligonucleotide was added at room temperature for 20 min., the samples were prepared by adding 1 μl of dye free loading buffer, and separated using 6% non-denaturing acrylamide gel electrophoresis. […]"}, "[3]": {"assay": "Cell viability (PI exclusion, flow cytometry)", "assay_type": "cell-based, murine", "details": "mouse, J774.2 macrophages, 10 μM, 24 hour exposure", "procedure": "(§1) Experiments were performed on cells at 60% confluence.\n(§2) Determination of cell viability: Cell-membrane integrity was detected by flow cytometer (FACSort, Becton Dickenson and Co., San Jose, Calif. USA) as a measurement of cell viability. For this assay, the nonpermeant DNA-intercalating dye propidium iodide (PI), which is excluded by viable cells, was used. Fluorescence settings were excitation at 488 nm and emission at 575 nm. Data were collected from at least 10,000 cells."}, "J774.2 macrophages": {"test_system": "J774.2 macrophages", "assay": "Cell viability (PI exclusion, flow cytometry)", "assay_type": "cell-based, murine", "details": "10 μM, activated cells", "procedure": "as §1, §2"}, "NF-κB [4]": {"test_system": "NF-κB", "assay": "NF-κB binding activity of nuclear extracts of treated macrophages (EMSA)", "assay_type": "cell-based, murine", "procedure": "Cell culture: Murine J774.2 macrophages (kindly provided by Prof. Dov Zipori from the Weizmann Institute of Science) were grown in RPMI medium supplemented with 10% (w/v) fetal calf serum, penicillin (100 U/ml), streptomycin (100 μg/ml) and 1× glutamine at 37° C. in a humidified atmosphere consisting of 95% air and 5% CO2. Experiments were performed on cells at 60% confluence.\nNuclear extracts: Nuclear Extracts were prepared using a slight modification of the method of Dignam et al (23). Treated cells were washed with cold PBS, scraped and centrifuged. Hypotonic buffer (1 ml, 20 mM HEPES pH 7.0, 10 mM KCl, 1 mM mGCl2, 0.5 mM DTT, 0.1% Triton X-100, 20% glycerol, 2 mM PMSP, 1 mg/ml Aprotonin and Leupeptin) was added to the cell pellets, the pellets were disrupted by pipetting, and centrifuged 3000 RPM for 5 min. The pellets were re-suspended in 100 μl cold extraction buffer (20 mM HEPES pH 7.0, 10 mM KCl, 1 mM mGCl2, 0.5 mM DTT, 0.1% Triton X-100, 20% glycerol, 2 mM PMSF, 1 mg/ml Aprotonin and Leupeptin, 420 mM NaCl). The samples were rotated for 20 min at 4° C., centrifuged 15,000 RPM for 10 min, and supernatants collected. Protein content was measured using Bradford reagent. Samples were stored frozen at minus 70° C.\nElectromobility shift assay (EMSA)—Gel shift assays were performed according to the gel shift assay protocol from Promega Corp. (San Luis Obispo, Calif.). A 22-mer double-stranded NF-κB consensus oligonucleotide 5′-[…]-3′ (SEQ ID NO:3), and Sp1 consensus oligonucleotide 5′-[…]-3(SEQ ID NO:4), were labeled with 32P. For each reaction, 2 μg of nuclear extract were incubated with 2 μl of 5× binding buffer for 5 min., 1 μl of the ^32P-labeled oligonucleotide was added at room temperature for 20 min., the samples were prepared by adding 1 μl of dye free loading buffer, and separated using 6% non-denaturing acrylamide gel electrophoresis. The gel was dried and exposed to a phosphoimaging screen for 18 hours and then visualized with a phosphoimager. For specificity, 1 μl of unlabeled consensus oligonucleotide was used to compete with the labeled probe."}, "lipid peroxidation (MDA)": {"test_system": "lipid peroxidation (MDA)", "assay": "Lipid peroxidation: MDA levels in colon tissue (HPLC)", "assay_type": "in vivo, rat", "details": "colitis-induced and uninduced rats, selenium supplemented group; data not presented", "procedure": "Lipid peroxidation—MDA levels: MDA levels in the colon tissue were determined as an indicator of lipid peroxidation using HPLC methodology (Valacchi et al., 2000). Briefly, tissue sections (100 mg) were homogenized in 1% Triton X 100 PBS. The suspended tissue was diluted 1:1 with 1% SDS solution and incubated with 250 ul TBA reagent (0.375 g TBA/100 ml) and 200 ul phosphoric acid (1.22 M) for 30 min at 100° C. Methanol ([…]) was added for protein precipitation and NaOH (20 ml, 1N) added for pH neutralization. After centrifugation, 100 ul clear supernatant was injected into a HPLC system, using a C185 m, 250 mm^a 4.6 mm internal diameter, reversed phase column (Alltech, Deerfield, Ill., USA). The mobile phase consisted of 60% methanol and 40% 50 mM NaH2PO4, pH 5.5. The flow rate was 0.9 ml/min and the detector was set to 532 nm. HPLC colarray ESA was used."}, "mtTFA": {"test_system": "mtTFA", "assay": "mtTFA mRNA in colon tissue (RT-PCR)", "assay_type": "in vivo, rat", "procedure": "Mitochondrial (mt) TFA, NRF1, and cytochrome c mRNA analysis: Total RNA was extracted from 50 to 100 mg tissue at a time using 1 ml of Tri Reagent® (Sigma-Aldrich Corp., St. Louis, Mo.) according to manufacturer's instructions. First strand cDNA synthesis was carried out using reverse-iTTM First Strand Synthesis from Advanced Biotechnologies (ABgene®, ABgene, Epsom, U.K.) was used according to the manufacturer's instructions. Target sequences were amplified in the PCR reaction as follows: each tube contained 37 ng of cDNA from cytochrome c, GAPDH, or 18S, 3 μl of specific primers, 12.5 μl of ready Mix and 6.5 μl water DEPC (for a total 25 μl in each tube).\nThe PCR for cytochrome c, NRF1 and mtTFA was run at 95° C. for 5 min, 94° C. for 30 sec, 56° C. for 2 min, 72° C. for 1 min, back to stage 2 for 22, 26, 24 cycles, respectively, then 72° C. for 10 min, and 4° C. The products of the PCR were separated on a 1% agarose gel in TAE buffer with ethidium bromide. The electrophoresis took place in a BioRad device in 1×TAE buffer at 95 V for about 50 min (maximum mA). The size of the cDNA was determined by a 100-bp marker.\nRat mtTFA: (Antisense) 5′-[…]-3′ (SEQ ID No. 15) corresponding to nucleotides 756 to 777 of rat mtMTFA (GenBank Accession No. AJ312746).\n(Sense): 5′-[…]-3′ (SEQ ID No. 16). The expected PCR product was 417 bp, the actual 417 bp."}}, "note": "Like-named read-outs stand apart in the source and are kept apart here.", "data": [{"molecule": "[Se]", "note": "[selenium]", "values": [{"measurement": "carcinogenesis in male mice", "setting": "[1]", "value": "unaffected"}, {"measurement": "18S and GAPDH transcription", "setting": "18S RNA and GAPDH", "value": "without effecting"}, {"measurement": "NF-κB binding in vitro", "setting": "NF-κB [2]", "value": "directly inhibited"}, {"measurement": "cytotoxicity at 24 h, 10 μM", "setting": "[3]; LPS + INFγ activated (FIG. 14A column c), read-out: decrease in viability, activated cells", "value": "≤ 50", "unit": "%"}, {"measurement": "cytotoxicity at 24 h, 10 μM", "setting": "[3]; not activated, read-out: decrease in viability, control cells", "value": 60, "unit": "%"}, {"measurement": "cell survival, simultaneous selenium exposure and activation", "setting": "J774.2 macrophages; from 75% without selenium (FIG. 14A)", "value": 35, "unit": "%"}, {"measurement": "cell survival, selenium following activation by 24 hours", "setting": "J774.2 macrophages; from 75% without selenium (FIG. 14B)", "value": 55, "unit": "%"}, {"measurement": "NF-κB translocation, resting unactivated macrophages", "setting": "NF-κB [4]; 0.5-5 μM, 72 hours (FIG. 12A)", "value": "no effect"}, {"measurement": "lowest concentration with dramatic effect on NF-κB translocation, activated macrophages", "setting": "NF-κB [4]; 72 hours, then 6 hours LPS + INFγ, range 0.5-5 μM (FIG. 12A)", "value": 0.5, "unit": "µM"}, {"measurement": "nuclear import of NF-κB, activated macrophages", "setting": "NF-κB [4]; concentration-dependent (FIG. 12A)", "value": "dramatically reduced"}, {"measurement": "colon tissue lipid peroxidation (MDA content)", "setting": "lipid peroxidation (MDA)", "value": "no changes"}, {"measurement": "mtTFA levels in colon tissue, colitis-induced rats", "setting": "mtTFA; 24 h after TNBS, supplemented (FIG. 17 lane 4), unsupplemented nearly absolute loss", "value": "surpass that of healthy control rats"}, {"measurement": "mtTFA levels in colon tissue, healthy rats", "setting": "mtTFA; healthy supplemented rats (FIG. 17 lane 2)", "value": "significantly enhances"}]}]}
